{"source": "patent EP0197829A1", "about": "“5H-pyrido[3',4':4,5]pyrrolo[3,2-c]pyridine derivatives, process for their preparation and their antitunour activity” (SANOFI, priority 1985, dated 1986)", "key": {"réticulosarcome M5-M5076": {"tested_on": "réticulosarcome M5-M5076", "test": "M5-M5076 reticulosarcoma test in vivo", "set-up": "species or system souris hybrides BDF1", "conditions": "for Survivants: at day J 75", "text": "(§1) L'activité antitumorale a été testée in vivo sur différentes tumeurs selon le protocole général suivant : Toutes les souris mâles ou femelles sont inoculées par voie intrapéritonéale au jour Jo avec une quantité déterminée de cellules tumorales viables, variable selon la tumeur.\n(§2) Elles sont ensuite réparties en différents lots. Chaque lot correspondant aux animaux traités par le produit à tester à une dose déterminée est composé de lO souris. Dans ce cas, le produit à tester est dissous dans l'eau distillée et il est administré, pendant n jours (J1-Jn) variables selon le protocole choisi, par voie intrapéritonéale à raison de 0,1 ml par lO g de poids des souris traitées, les doses du produit administré étant précisées dans les tableaux ci-dessous.\n(§3) Le lot \"Contrôle négatif\", correspondant aux animaux qui ne sont pas traités par un produit, comprend 2 √N animaux, N étant égal au nombre total de souris traitées par un produit.\n(§4) Enfin, tous lés essais sont conduits parallèlement à l'étude d'un lot appelé \"Contrôle positif\" de 10 animaux qui est traité par une molécule active, variable selon le protocole choisi, dans les mêmes conditions que les lots traités par le produit à tester, afin de valider l'essai.\n(§5) L'activité antitumorale est évaluée en considérant l'augmentation du temps de survie des animaux traités par rapport à celui des animaux du lot \"Contrôle négatif\" selon la formule : • Jour médian de survie des animaux traités à une T/C = dose donnée de produit x 100 • Jour médian de survie des animaux \"Contrôle négatif\"\n(§6) Un composé est considéré comme étant actif lorsque la valeur du rapport T/C est égale ou supérieure à 125 % selon le protocole retenu. Il est toxique lorsque cette valeur est égale ou inférieure à 85 %. Le produit est également considéré comme toxique lorsque la variation pondérale, exprimée en grammes et calculée par la formule : Poids moyen du lot mesuré au jour 5 - poids moyen du même lot au jour 1, est égale ou inférieure à -4g . a) Test de la leucémie P 388 (GERAN et al., Cancer Chemother, 1972, 2, 07-57).\nd) Test du réticulosarcome M5-M5076.\nLes essais sont effectués avec des souris hybrides BDF1 inoculées avec 10^6 cellules de la lignée M5-M5076. Le composé à tester est administré 5 fois successivement de façon séquentielle (Jl, 5, 9, 13, 17). Le contrôle positif du test est le cyclophosphamide administré dans les mêmes conditions. Le nombre d'animaux survivants est évalué au jour J 75. Un composé est considéré comme actif lorsque le rapport T/C est supérieur ou égal à 125 %."}, "leucémie L 1210": {"tested_on": "leucémie L 1210", "test": "L 1210 leukemia test in vivo", "set-up": "species or system souris hybrides CDF1", "conditions": "for Survivants: at day J 60", "text": "as §1, §2, §3, §4, §5, §6\nb) Test de la leucémie L 1210 (GERAN et al., Cancer Chemother, 1972, 2, 07-57).\nLes essais sont effectués avec des souris hybrides CDF1 inoculées avec 10^5 cellules leucémiques de la lignée L 1210. Le composé à tester est administré pendant 5 jours (J1-J5). Le contrôle positif du test est le 5-fluorouracile administré dans les mêmes conditions. Le nombre d'animaux survivants est évalué au jour J 60. Un composé est considéré comme étant actif lorsque le rapport T/C est supérieur ou égal à 125 %."}, "leucémie P 388": {"tested_on": "leucémie P 388", "type": "in vivo, souris hybrides CDF1", "conditions": "for Survivants: at day J 40", "text": "as §1, §2, §3, §4, §5, §6\nLes essais sont effectués avec des souris hybrides CDF1 inoculées par voie intrapéritonéale avec […] leucémiques de la lignée P 388. Le composé à tester est administré pendant 5 jours (Jl-J5). Le contrôle positif du test est le 5-fluorouracile qui est administré dans les mêmes conditions.\n[…] Un composé est considéré comme étant actif lorsque le rapport T/C est supérieur à 127 %."}, "[1]": {"conditions": "100 mg/kg i.p. J1, 5, 9, 13, 17"}, "[2]": {"conditions": "150 mg/kg i.p. J1, 5, 9, 13, 17"}}, "note": "Where two headings read alike, the source gives them in different places.", "data": [{"compound": "Cc1cnc(NCCCN(C)C)c2c1[nH]c1ccncc12", "note": "[Dérivé N° 3, [(diméthylamino-3 propyl-1)amino]-1 méthyl-4 5-H pyrido[3',4':4,5]pyrrolo[3,2-c]pyridine]", "values": [{"measurement": "Jour médian de survie", "setting": "réticulosarcome M5-M5076; 25 mg/kg i.p. J1, 5, 9, 13, 17", "value": "51,0"}, {"measurement": "T/C %", "setting": "réticulosarcome M5-M5076; 25 mg/kg i.p. J1, 5, 9, 13, 17", "value": 195, "unit": "%"}, {"measurement": "Survivants", "setting": "réticulosarcome M5-M5076; 25 mg/kg i.p. J1, 5, 9, 13, 17", "value": 1}, {"measurement": "Jour médian de survie", "setting": "réticulosarcome M5-M5076; 50 mg/kg i.p. J1, 5, 9, 13, 17", "value": "45,0"}, {"measurement": "T/C %", "setting": "réticulosarcome M5-M5076; 50 mg/kg i.p. J1, 5, 9, 13, 17", "value": 172, "unit": "%"}, {"measurement": "Survivants", "setting": "réticulosarcome M5-M5076; 50 mg/kg i.p. J1, 5, 9, 13, 17", "value": 0}, {"measurement": "Jour médian de survie", "setting": "réticulosarcome M5-M5076; 75 mg/kg i.p. J1, 5, 9, 13, 17", "value": "41,7"}, {"measurement": "T/C %", "setting": "réticulosarcome M5-M5076; 75 mg/kg i.p. J1, 5, 9, 13, 17", "value": 159, "unit": "%"}, {"measurement": "Survivants", "setting": "réticulosarcome M5-M5076; 75 mg/kg i.p. J1, 5, 9, 13, 17", "value": 0}, {"measurement": "Jour médian de survie", "setting": "réticulosarcome M5-M5076; [1]", "value": "44,7"}, {"measurement": "T/C %", "setting": "réticulosarcome M5-M5076; [1]", "value": 171, "unit": "%"}, {"measurement": "Survivants", "setting": "réticulosarcome M5-M5076; [1]", "value": 0}, {"measurement": "Jour médian de survie", "setting": "réticulosarcome M5-M5076; [2]", "value": "10,0"}, {"measurement": "T/C %", "setting": "réticulosarcome M5-M5076; [2]", "value": 38, "unit": "%"}, {"measurement": "Survivants", "setting": "réticulosarcome M5-M5076; [2]", "value": 0}, {"measurement": "Jour médian de survie", "setting": "leucémie L 1210; 5 mg/kg i.p. J1-J5", "value": "14,0"}, {"measurement": "T/C %", "setting": "leucémie L 1210; 5 mg/kg i.p. J1-J5", "value": 152, "unit": "%"}, {"measurement": "Survivants", "setting": "leucémie L 1210; 5 mg/kg i.p. J1-J5", "value": 0}, {"measurement": "Jour médian de survie", "setting": "leucémie L 1210; 10 mg/kg i.p. J1-J5", "value": "16,25"}, {"measurement": "T/C %", "setting": "leucémie L 1210; 10 mg/kg i.p. J1-J5", "value": 177, "unit": "%"}, {"measurement": "Survivants", "setting": "leucémie L 1210; 10 mg/kg i.p. J1-J5", "value": 0}, {"measurement": "Jour médian de survie", "setting": "leucémie L 1210; 20 mg/kg i.p. J1-J5", "value": "15,6"}, {"measurement": "T/C %", "setting": "leucémie L 1210; 20 mg/kg i.p. J1-J5", "value": 170, "unit": "%"}, {"measurement": "Survivants", "setting": "leucémie L 1210; 20 mg/kg i.p. J1-J5", "value": 0}, {"measurement": "Jour médian de survie", "setting": "leucémie L 1210; 40 mg/kg i.p. J1-J5", "value": "9,25"}, {"measurement": "T/C %", "setting": "leucémie L 1210; 40 mg/kg i.p. J1-J5", "value": 100, "unit": "%"}, {"measurement": "Survivants", "setting": "leucémie L 1210; 40 mg/kg i.p. J1-J5", "value": 0}, {"measurement": "Jour médian de survie", "setting": "leucémie L 1210; 50 mg/kg i.p. J1-J5", "value": "8,2"}, {"measurement": "T/C %", "setting": "leucémie L 1210; 50 mg/kg i.p. J1-J5", "value": 89, "unit": "%"}, {"measurement": "Survivants", "setting": "leucémie L 1210; 50 mg/kg i.p. J1-J5", "value": 0}, {"measurement": "Jour médian de survie", "setting": "leucémie L 1210; 1,25 mg/kg i.p. J1-J5", "value": "11,75"}, {"measurement": "T/C %", "setting": "leucémie L 1210; 1,25 mg/kg i.p. J1-J5", "value": 128, "unit": "%"}, {"measurement": "Survivants", "setting": "leucémie L 1210; 1,25 mg/kg i.p. J1-J5", "value": 0}, {"measurement": "Jour médian de survie", "setting": "leucémie L 1210; 2,5 mg/kg i.p. J1-J5", "value": "12,90"}, {"measurement": "T/C %", "setting": "leucémie L 1210; 2,5 mg/kg i.p. J1-J5", "value": 140, "unit": "%"}, {"measurement": "Survivants", "setting": "leucémie L 1210; 2,5 mg/kg i.p. J1-J5", "value": 0}, {"measurement": "Jour médian de survie", "setting": "leucémie P 388; 5 mg/kg i.p. J1-J5", "value": "16,25"}, {"measurement": "T/C %", "setting": "leucémie P 388; 5 mg/kg i.p. J1-J5", "value": 147, "unit": "%"}, {"measurement": "Survivants", "setting": "leucémie P 388; 5 mg/kg i.p. J1-J5", "value": 0}, {"measurement": "Jour médian de survie", "setting": "leucémie P 388; 10 mg/kg i.p. J1-J5", "value": "17,75"}, {"measurement": "T/C %", "setting": "leucémie P 388; 10 mg/kg i.p. J1-J5", "value": 161, "unit": "%"}, {"measurement": "Survivants", "setting": "leucémie P 388; 10 mg/kg i.p. J1-J5", "value": 0}, {"measurement": "Jour médian de survie", "setting": "leucémie P 388; 20 mg/kg i.p. J1-J5", "value": "20,0"}, {"measurement": "T/C %", "setting": "leucémie P 388; 20 mg/kg i.p. J1-J5", "value": 181, "unit": "%"}, {"measurement": "Survivants", "setting": "leucémie P 388; 20 mg/kg i.p. J1-J5", "value": 0}, {"measurement": "Jour médian de survie", "setting": "leucémie P 388; 40 mg/kg i.p. J1-J5", "value": "19,3"}, {"measurement": "T/C %", "setting": "leucémie P 388; 40 mg/kg i.p. J1-J5", "value": 175, "unit": "%"}, {"measurement": "Survivants", "setting": "leucémie P 388; 40 mg/kg i.p. J1-J5", "value": 1}, {"measurement": "Jour médian de survie", "setting": "leucémie P 388; 80 mg/kg i.p. J1-J5", "value": "7,3"}, {"measurement": "T/C %", "setting": "leucémie P 388; 80 mg/kg i.p. J1-J5", "value": 66, "unit": "%"}, {"measurement": "Survivants", "setting": "leucémie P 388; 80 mg/kg i.p. J1-J5", "value": 0}, {"measurement": "Jour médian de survie", "setting": "leucémie P 388; 0,625 mg/kg i.p. J1-J5", "value": "13,1"}, {"measurement": "T/C %", "setting": "leucémie P 388; 0,625 mg/kg i.p. J1-J5", "value": 119, "unit": "%"}, {"measurement": "Survivants", "setting": "leucémie P 388; 0,625 mg/kg i.p. J1-J5", "value": 0}, {"measurement": "Jour médian de survie", "setting": "leucémie P 388; 1,25 mg/kg i.p. J1-J5", "value": "14,1"}, {"measurement": "T/C %", "setting": "leucémie P 388; 1,25 mg/kg i.p. J1-J5", "value": 128, "unit": "%"}, {"measurement": "Survivants", "setting": "leucémie P 388; 1,25 mg/kg i.p. J1-J5", "value": 0}, {"measurement": "Jour médian de survie", "setting": "leucémie P 388; 2,5 mg/kg i.p. J1-J5", "value": "15,0"}, {"measurement": "T/C %", "setting": "leucémie P 388; 2,5 mg/kg i.p. J1-J5", "value": 136, "unit": "%"}, {"measurement": "Survivants", "setting": "leucémie P 388; 2,5 mg/kg i.p. J1-J5", "value": 0}]}]}
